According to PMC12349723, “Computationally accelerated identification of P-glycoprotein inhibitors” (PLOS One, 2025):
“And” between values parts separate entries of the source, which are not always exact repeats. Equal entries are not always repeated. Where two headings read alike, the source gives them in different places.

Key:
DU145-TXR cells = assay: MTT viability assay, reversal of MDR (re-sensitization to paclitaxel) in P-gp overexpressing DU145-TXR cells; format: cell-based, human; details: for % Survival, mean / % Survival: 15 µM compound + 500 nM PTX (Paclitaxel, Taxol); for % Survival, mean / % Survival / viability at 15 µM: DU145-TXR; for Re-sensitization of DU145-TXR cells to PTX (reversal of MDR): 15 µM compound with or without 500 nM PTX, 48 h, MTT, re-sensitization = 30% or greater decrease in cell viability; for viability at 15 µM: Homo sapiens, 15 µM Compound Alone
Procedure, shortened: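 MTT viability testing was done on P-gp overexpressing, multidrug resistant DU145-TXR human prostate cancer cells. They were kept in 10 nM paclitaxel and seeded at 3,000 cells per well in complete RPMI. Cells were exposed to compound, with or without paclitaxel, for 48 hours. MTT was then added for 4 hours, formazan was dissolved in DMSO, and absorbance was read at 570 nm. Survival was expressed relative to control-treated cells.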

P-gp [1] = assay: SWISS-ADME prediction of P-gp transport substrate; details: prediction compared to the LC-MS/MS intracellular accumulation data
From the text: Identifying P-gp inhibitors that are not transport substrates remains inherently challenging. To that end, computational tools such as the SWISS-ADME server attempt to use a molecule’s unique chemical and structural characteristics to predict whether it is likely to be a P-gp transport substrate. Our LC-MS/MS assays allowed us to retroactively test the validity of predictions from SWISS-ADME. […] Alternative identifiers for the molecules identified in this study are shown in S7 Table.
S1 Table. Known P-gp Inhibitors and Predicted Chemical Properties. A non-exhaustive list of known P-gp inhibitors and their selected chemical properties ^[64, 65]. Clinical trial outcomes were adapted from ^[10, 11]. Compounds were evaluated using the SWISS-ADME server ^[54]. […] “Predicted P-gp Substrate” - predicted by SWISS-ADME to be a transport substrate of P-gp. “Known P-gp Substrate” – In addition to being P-gp inhibitors, these molecules are: known transport substrates of P-gp, known non-transport substrates of P-gp, unknown whether it is a transport substrate of P-gp ^[66-68]. If the molecule is designated in a specific generation of P-gp inhibitors - First Generation P-gp inhibitors, Second generation P-gp inhibitors, Third generation P-gp inhibitors.

A2780 cells = assay: MTT viability assay, parental A2780 cells, with or without PTX; format: cell-based, human; details: for Increase of PTX toxicity against parental A2780 cells: 15 µM compound with or without 500 nM PTX, 48 h, MTT; for Mean % Survival / % Survival (individual sample): A2780 cells; for Mean % Survival / viability at 15 µM: mean of 8 or 12 samples; for % Survival (individual sample): single samples; for viability at 15 µM: Homo sapiens, A2780, A2780 cells, read-out: Mean % Survival
Procedure, shortened: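 A2780 and doxorubicin-selected (100 nM) P-gp-overexpressing A2780-ADR cells, 3,000/well in RPMI + 10% FBS, were exposed to compounds, with or without chemotherapeutic, for 48 h at 37 °C. MTT read at 570 nm after 4 h; survival expressed as percent of vehicle, or vehicle-plus-chemotherapeutic, control.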

P-gp [2] = target: T1, P-gp (Homo sapiens, UniProt P08183); assay: Top Hit classification from combined in vitro criteria; details: reverse MDR, do not increase PTX toxicity in chemo-sensitive cancer cells, non-toxic to noncancerous cells, not P-gp substrates
T1 construct: The MDR, P-gp overexpressing DU145-TXR cells were maintained under positive selection pressure; endogenous in cells; host or cells: DU145-TXR (paclitaxel-resistant sub-line of DU145 human prostate cancer cells)
T1 sequence (P08183 whole entry): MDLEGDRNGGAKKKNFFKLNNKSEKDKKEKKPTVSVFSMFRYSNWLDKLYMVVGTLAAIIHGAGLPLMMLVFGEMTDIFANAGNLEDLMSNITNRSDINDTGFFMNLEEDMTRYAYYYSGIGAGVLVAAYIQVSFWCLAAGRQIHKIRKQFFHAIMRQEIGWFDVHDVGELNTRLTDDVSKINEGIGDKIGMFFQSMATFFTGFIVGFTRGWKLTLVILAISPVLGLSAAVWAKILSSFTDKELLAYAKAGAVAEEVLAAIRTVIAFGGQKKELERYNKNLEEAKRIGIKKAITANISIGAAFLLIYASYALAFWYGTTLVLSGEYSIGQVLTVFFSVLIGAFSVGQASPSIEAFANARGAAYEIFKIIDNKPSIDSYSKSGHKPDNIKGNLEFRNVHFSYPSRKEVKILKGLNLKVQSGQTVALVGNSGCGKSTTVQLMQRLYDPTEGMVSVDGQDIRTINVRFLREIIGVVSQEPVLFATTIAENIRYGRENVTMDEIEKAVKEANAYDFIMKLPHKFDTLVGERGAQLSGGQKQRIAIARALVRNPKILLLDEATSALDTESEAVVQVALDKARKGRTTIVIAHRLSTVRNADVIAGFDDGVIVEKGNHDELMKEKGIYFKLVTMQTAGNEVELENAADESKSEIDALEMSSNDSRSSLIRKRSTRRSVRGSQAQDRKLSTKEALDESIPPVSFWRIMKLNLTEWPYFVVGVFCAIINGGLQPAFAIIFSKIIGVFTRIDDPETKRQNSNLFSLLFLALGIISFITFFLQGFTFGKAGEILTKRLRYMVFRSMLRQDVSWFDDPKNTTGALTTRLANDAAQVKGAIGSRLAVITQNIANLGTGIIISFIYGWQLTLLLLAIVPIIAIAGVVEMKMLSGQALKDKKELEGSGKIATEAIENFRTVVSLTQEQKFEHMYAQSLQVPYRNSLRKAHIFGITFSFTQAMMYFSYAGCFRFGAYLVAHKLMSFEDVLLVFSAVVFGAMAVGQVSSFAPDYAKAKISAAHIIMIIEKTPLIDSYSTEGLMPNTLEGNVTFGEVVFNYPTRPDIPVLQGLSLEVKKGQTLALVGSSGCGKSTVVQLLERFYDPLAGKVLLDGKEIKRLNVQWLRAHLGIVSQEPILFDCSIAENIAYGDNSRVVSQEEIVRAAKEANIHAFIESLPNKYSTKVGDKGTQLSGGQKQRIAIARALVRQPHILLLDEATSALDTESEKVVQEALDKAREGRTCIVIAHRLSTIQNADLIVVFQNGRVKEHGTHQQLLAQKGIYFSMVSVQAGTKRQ

[3] = SWISS-ADME computational analysis of chemical properties; details: predicted aqueous solubility compared to that observed in the laboratory
Procedure, shortened: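 In silico prediction by the SWISS-ADME server of chemical properties and of whether each molecule is a P-gp transport substrate, based on its chemical and structural characteristics.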

[4] = mean of 8 samples, read-out: % Survival, mean
[5] = trial 1, sample 1, read-out: % Survival
[6] = trial 1, sample 2, read-out: % Survival
[7] = trial 1, sample 3, read-out: % Survival
[8] = trial 1, sample 4, read-out: % Survival
[9] = trial 2, sample 1, read-out: % Survival
[10] = trial 2, sample 2, read-out: % Survival
[11] = trial 2, sample 3, read-out: % Survival
[12] = trial 2, sample 4, read-out: % Survival

Structure (SMILES)	% Survival, mean (DU145-TXR cells; mean of 8 samples)	% Survival (DU145-TXR cells; trial 1, sample 1)	% Survival (DU145-TXR cells; trial 1, sample 2)	% Survival (DU145-TXR cells; trial 1, sample 3)	% Survival (DU145-TXR cells; trial 1, sample 4)	% Survival (DU145-TXR cells; trial 2, sample 1)	% Survival (DU145-TXR cells; trial 2, sample 2)	% Survival (DU145-TXR cells; trial 2, sample 3)	% Survival (DU145-TXR cells; trial 2, sample 4)	Re-sensitization of DU145-TXR cells to PTX (reversal of MDR) (DU145-TXR cells)	viability at 15 µM (DU145-TXR cells; [4])	viability at 15 µM (DU145-TXR cells; [5])	viability at 15 µM (DU145-TXR cells; [6])	viability at 15 µM (DU145-TXR cells; [7])	viability at 15 µM (DU145-TXR cells; [8])	viability at 15 µM (DU145-TXR cells; [9])	viability at 15 µM (DU145-TXR cells; [10])	viability at 15 µM (DU145-TXR cells; [11])	viability at 15 µM (DU145-TXR cells; [12])	Correct P-gp Substrate Prediction? (P-gp [1])	other results
COc1cccc(N2CCN(c3ccc4nnc(CCC(=O)Nc5ccc(F)c(F)c5)n4n3)CC2)c1 [Compound 101, COc1cccc(c1)N1CCN(CC1)c1ccc2nnc(CCC(=O)Nc3ccc(F)c(F)c3)n2n1]	57.4%	48%	48%	37%	48%	83%	70%	66%	58%	re-sensitized DU145-TXR cells to PTX	112%	121%	110%	111%	113%	117%	106%	109%	104%	No	Increase of PTX toxicity against parental A2780 cells (A2780 cells): did not greatly increase the toxicity of PTX against the parental A2780 cells; Mean % Survival (A2780 cells; 15 µM compound + 500 nM PTX): 14.3%; % Survival (individual sample) (A2780 cells; 15 µM compound alone): 64%; viability at 15 µM (A2780 cells; 15 µM compound alone): 91.9%; Top Hit (P-gp [2]): Yes; Correct Water Solubility Prediction? [3]: Yes
Cc1ccc(-c2noc(-c3cn(Cc4ccc(NS(=O)(=O)c5ccccc5F)cc4)cn3)n2)cc1 [Compound 103, Cc1ccc(cc1)-c1noc(n1)-c1cn(Cc2ccc(NS(=O)(=O)c3ccccc3F)cc2)cn1]	19.9%	11%	11%	11%	14%	32%	27%	27%	28%	re-sensitized DU145-TXR cells to PTX	76.4%	58%	50%	48%	52%	108%	104%	94%	96%	No	Increase of PTX toxicity against parental A2780 cells (A2780 cells): did not greatly increase the toxicity of PTX against the parental A2780 cells; Mean % Survival (A2780 cells; 15 µM compound + 500 nM PTX): 13.6%; % Survival (individual sample) (A2780 cells; 15 µM compound + 500 nM PTX): 10% and 18% and 19%; % Survival (individual sample) (A2780 cells; 15 µM compound alone): 63%; viability at 15 µM (A2780 cells; 15 µM compound alone): 52.9%; Top Hit (P-gp [2]): No; Correct Water Solubility Prediction? [3]: No
Cc1onc(-c2ccccc2)c1-c1nnc(Cn2cnc3ccccc3c2=O)o1 [Compound 111, Cc1onc(c1-c1nnc(Cn2cnc3ccccc3c2=O)o1)-c1ccccc1]	41.1%	30%	34%	44%	39%	51%	48%	46%	38%	re-sensitized DU145-TXR cells to PTX	102%	111%	93%	90%	94%	106%	115%	108%	103%	No	Increase of PTX toxicity against parental A2780 cells (A2780 cells): did not greatly increase the toxicity of PTX against the parental A2780 cells; Mean % Survival (A2780 cells; 15 µM compound + 500 nM PTX): 14.4%; % Survival (individual sample) (A2780 cells; 15 µM compound + 500 nM PTX): 13%; % Survival (individual sample) (A2780 cells; 15 µM compound alone): 102%; viability at 15 µM (A2780 cells; 15 µM compound alone): 94%; Top Hit (P-gp [2]): Yes; Correct Water Solubility Prediction? [3]: Yes
